Experimental data as given in paper PMC12005767 (Advanced Science, 2025).

Tests used:
HDAC11 = molecular target: T1, HDAC11 (Homo sapiens, UniProt Q96DB2); test: HDAC11 inhibition fluorescence assay (ETDKmyr substrate); format: biochemical; conditions: for IC50: mean ± SEM
T1 construct: The HDAC11 enzyme was a full‐length human recombinant HDAC enzyme sourced from BPS Bioscience; purchased BPS Bioscience
T1 sequence (Q96DB2 1-347): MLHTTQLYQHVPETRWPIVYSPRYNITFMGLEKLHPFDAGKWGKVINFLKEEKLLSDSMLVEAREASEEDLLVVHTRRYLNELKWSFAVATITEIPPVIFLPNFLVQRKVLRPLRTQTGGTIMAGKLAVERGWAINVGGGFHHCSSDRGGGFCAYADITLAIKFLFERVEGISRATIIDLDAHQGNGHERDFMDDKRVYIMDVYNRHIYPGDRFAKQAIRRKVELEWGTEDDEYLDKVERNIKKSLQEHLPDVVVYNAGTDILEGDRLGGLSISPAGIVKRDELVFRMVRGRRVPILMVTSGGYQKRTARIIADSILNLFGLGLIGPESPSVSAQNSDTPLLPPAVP
Method: The HDAC11 enzyme was a full‐length human recombinant HDAC enzyme sourced from BPS Bioscience. In detail, a total of 20 µL of recombinant HDAC11 enzyme solution (working concentration = 1 × 10^−9 M) was combined with varying concentrations of the test compound (20 µL) in a 96‐well black plate. The mixture was then incubated at a temperature of 30 °C for a duration of 1 h. Subsequently, 10 µL of the specific fluorogenic substrate (ETDKacyl‐Kmyr) was added. Following 2 h incubation at 30 °C, the catalytic reaction was ceased by adding 10 µL of a developer solution consisting of 2 mg mL^−1 trypsin and 5 × 10^−6 M trichostatin A (TSA). After a standing period of 6 h, the fluorescence intensity was assessed using a microplate reader at excitation and emission wavelengths of 360 and 460 nm, respectively. The inhibition ratios were calculated based on the fluorescence intensity readings of the test wells compared to the control wells. GraphPad Prism 8.0 software was employed to generate IC 50 curves and determine the corresponding IC 50 values utilizing the “log(inhibitor) versus normalized response‐variable slope” function.

HDAC3 = molecular target: T2, HDAC3 (Homo sapiens, UniProt O15379); test: In vitro HDACs inhibition fluorescence assay, HDAC3; format: biochemical; conditions: mean ± SEM
T2 construct: purchased BPS Bioscience
Method: (§1) In Vitro HDACs Inhibition Fluorescence Assay: For the inhibitory activity against HDAC1‐10, enzymes were also procured from BPS Bioscience. The in vitro […] inhibition assays were conducted following the established method described previously.^[ [45] ^] The working concentrations of HDAC1‐10 were 4 × 10^−9 M. The fluorogenic substrate of HDAC1, 2, 3, and 6 was Boc‐Lys (acetyl)‐AMC, and the substrate of HDAC4, 5, 7, 8, 9, and 10 was Boc‐Lys (trifluoroacetyl) AMC. The developer solution consists of 30 mg mL^−1 trypsin and 5 × 10^−6 M TSA. A standing period of 30 min was sufficient before assessing the fluorescence intensity.

HDAC1 [1] = molecular target: T3, HDAC1 (Homo sapiens, UniProt Q13547); test: In vitro HDACs inhibition fluorescence assay, HDAC1; format: biochemical; conditions: mean ± SEM
T3 construct: purchased BPS Bioscience
Method: as §1

HDAC1 [2] = molecular target: T3, HDAC1; design: method as in PMID 27754681; conditions: prior research; cited from earlier work

T2 sequence (O15379 whole entry): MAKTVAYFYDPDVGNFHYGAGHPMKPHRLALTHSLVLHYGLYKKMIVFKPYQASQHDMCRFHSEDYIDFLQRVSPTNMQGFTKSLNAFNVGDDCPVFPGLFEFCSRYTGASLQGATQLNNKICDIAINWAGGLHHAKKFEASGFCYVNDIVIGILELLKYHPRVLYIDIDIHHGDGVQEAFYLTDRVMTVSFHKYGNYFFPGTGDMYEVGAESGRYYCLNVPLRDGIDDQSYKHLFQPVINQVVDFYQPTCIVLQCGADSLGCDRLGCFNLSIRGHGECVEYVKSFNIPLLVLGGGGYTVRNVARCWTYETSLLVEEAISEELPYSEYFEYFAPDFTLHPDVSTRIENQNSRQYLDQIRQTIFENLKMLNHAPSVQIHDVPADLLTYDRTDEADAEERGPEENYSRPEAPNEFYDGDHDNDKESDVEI
T2 sequence (Q9Y618 395-489 partner limits assumed): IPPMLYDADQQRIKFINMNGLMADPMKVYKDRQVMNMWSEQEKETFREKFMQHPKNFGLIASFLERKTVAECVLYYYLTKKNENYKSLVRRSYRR
T3 sequence (Q13547 whole entry): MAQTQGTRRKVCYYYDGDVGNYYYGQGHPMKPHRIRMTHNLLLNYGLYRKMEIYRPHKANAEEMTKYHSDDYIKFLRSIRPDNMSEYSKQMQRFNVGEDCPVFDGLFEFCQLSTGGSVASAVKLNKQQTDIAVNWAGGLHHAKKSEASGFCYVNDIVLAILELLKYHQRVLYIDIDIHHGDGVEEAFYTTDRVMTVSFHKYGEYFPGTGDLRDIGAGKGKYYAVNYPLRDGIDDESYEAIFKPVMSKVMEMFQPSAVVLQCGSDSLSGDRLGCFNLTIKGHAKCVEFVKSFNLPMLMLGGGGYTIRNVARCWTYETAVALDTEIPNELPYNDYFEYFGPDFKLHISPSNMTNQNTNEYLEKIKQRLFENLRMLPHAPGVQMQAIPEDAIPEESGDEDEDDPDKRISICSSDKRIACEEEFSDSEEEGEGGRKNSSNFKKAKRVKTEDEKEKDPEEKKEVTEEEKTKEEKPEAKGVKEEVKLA

SMILES	IC50 (HDAC11) [nM]	IC50 (HDAC3) [nM]	IC50 (HDAC1 [1]) [nM]	IC50 for HDAC1 (in words) (HDAC1 [2])	inhibitory activity against HDAC11 (in words) (HDAC11)
CCOCCCCCCCCNNC(=O)c1ccc(CNC(=O)c2ccccc2)cc1 [B3]	494 ± 41.9				
CCCCCCCCNNC(=O)c1ccc(CNC(=O)c2ccccc2)cc1 [A5]	942 ± 94.1	501 ± 2.4	2050 ± 27.5		
CCCCNNC(=O)c1ccc(CNC(=O)c2ccccc2)cc1 [A1]	3250 ± 241		20.5 ± 1.4	low nanomolar	moderate inhibitory activity
CCCCCCNNC(=O)c1ccc(CNC(=O)c2ccccc2)cc1 [A3]	> 10000	6.79 ± 0.19	34.5 ± 3.15		
CCOCCOCCCCCNNC(=O)c1ccc(CNC(=O)c2ccccc2)cc1 [B8]	801 ± 49.5				
CCCCCCCCCNNC(=O)c1ccc(CNC(=O)c2ccccc2)cc1 [A6]	504 ± 45.5	2050 ± 39.5	> 10000		
COCCOCCCCCCNNC(=O)c1ccc(CNC(=O)c2ccccc2)cc1 [B7]	2440 ± 223				
CCCCCNNC(=O)c1ccc(CNC(=O)c2ccccc2)cc1 [A2]	6740 ± 324		45.6 ± 2.36	low nanomolar	moderate inhibitory activity
COCCCCCCCCCNNC(=O)c1ccc(CNC(=O)c2ccccc2)cc1 [B2]	1550 ± 116				
CCCCCCCNNC(=O)c1ccc(CNC(=O)c2ccccc2)cc1 [A4]	3310 ± 157	6360 ± 324	415 ± 153		
CCCCCCCCCCNNC(=O)c1ccc(CNC(=O)c2ccccc2)cc1 [A7]	416 ± 41.1	> 10000	> 10000		
O=C(NCc1ccc(C(=O)NNCCCCCCCCCCO)cc1)c1ccccc1 [B1]	664 ± 64.9				
CCCCOCCCCCCNNC(=O)c1ccc(CNC(=O)c2ccccc2)cc1 [B5]	357 ± 16.5				
CCCOCCCCCCCNNC(=O)c1ccc(CNC(=O)c2ccccc2)cc1 [B4]	257 ± 12.1				
CCCCCCCCCCCCNNC(=O)c1ccc(CNC(=O)c2ccccc2)cc1 [A9]	132 ± 4.29	> 10000	> 10000		
CCCCCCCCCCCCCCCCNNC(=O)c1cccs1 [SIS17, reference compound]	243 ± 12.3	> 10000	> 10000		
